According to patent US9283212B2, “Pharmaceutical preparation and delivery system” (PALMAYA PTY LTD, priority 2009, dated 2016):
Entries after “also recorded” stand apart in the source; their conditions may differ.

Tests used:
[1] = test system: patients with addiction, chronic anxiety or sleep disorders; test: continuous subcutaneous infusion of flumazenil in patients (case study and observations); format: in vivo, human
Protocol: A solution of flumazenil in saline solution was prepared by dissolving 16 mg of flumazenil in 30 mL of saline and adjusting the pH to between 6.5 to 7.0 with a phosphate buffer, solution (pH 5.0). The final concentration of flumazenil in saline is 0.53 mg/mL.
A solution of flumazenil in saline was prepared as set out above. That is, a portion of 12 to 16 mg flumazenil in 30 mL of saline was prepared for the subcutaneous administration via a spring driven 30 mL pump. The pump used was a portable infusion Springfusor pump (O'Neil Balloon Infuser, ID: SBI-100; Go Medical Industries). The delivery rate of the flumazenil was in the order of 40 to 1000 μg/h.
A Springfusor pump connected to tubing and a butterfly cannula was set up, wherein the pump was loaded with 30 mL of flumazenil solution (0.53 mg/mL). The butterfly cannula was inserted into the patient's abdomen using standard techniques and the pump set to delivery flumazenil at a rate of 166 μg/h. After the initial four day (96 hour) administration, the pump was reloaded with a further 30 mL of flumazenil solution (0.53 mgmL) and delivery continued for a further four days (96 hours). The subcutaneous infusion continued for a total of three weeks.

[2] = test system: patients with addiction, chronic anxiety or sleep disorders; test: as above; format: in vivo, human; conditions: intravenous infusions below 80 μg/h
[3] = test system: patient suffering from chronic anxiety; test: patient controlled subcutaneous pump, single dose, heart rate and anxiety; format: in vivo, human
Protocol: The heart rate and the body movement of the patient were recorded using standard equipment.

[4] = cited from earlier work
[5] = cited from earlier work; remark: listed apart in the source
[6] = test system: patients with cravings for smoking; conditions: patient controlled delivery, agent alone
Source text: In one experiment, flumazenil and naltrexone were mixed to capture the benefits of mixing a benzodiazepine antagonist and an opiate antagonist to be given in a pulsative manner when cravings were observed.

[7] = test system: subjects with panic disorder, social anxiety or alcohol dependence; conditions: cited from earlier work
[8] = continuous subcutaneous infusion

CCOC(=O)c1ncn2c1CN(C)C(=O)c1cc(F)ccc1-2 [flumazenil]
panic attacks ([1]; after full treatment with subcutaneous infusion, one patient): gone
anticonvulsant effect ([1]; constant subcutaneous delivery of 166 μg/h): appears to be effective as an anticonvulsant
sleeping pulse rates ([1]; continuous infusion with or without opiate and cannabanoid antagonists, chronic anxiety disorders): reductions in sleeping pulse rates
anxiety levels / anxiety disorders [1, 8]: reduced; also recorded: marked improvements
cognitive function [1, 8]: improved cognitive functions; also recorded: appeared to improve daily
dependency on anti-psychotic drugs ([1]; continuous subcutaneous infusion 166 μg/h, one patient): decreased
sleep patterns / chronic sleep disorders ([1]; continuous subcutaneous infusion, 166 μg/h, greater than four days): better sleep patterns; also recorded: gradually improved; also recorded: good response rates
cravings for addictive substances (alcohol, smoking, amphetamines, opiates, benzodiazepines) ([1]; continuous subcutaneous infusion, during and after infusion): decreased and eventually were considered negligible; also recorded: reduced; also recorded: reduction in craving for alcohol
anticonvulsant effect [2]: failed to stop epileptic convulsions
pulse rate ([3]; 60 minutes after single 1 mg subcutaneous dose, from close to 120 bpm before): 80 bpm
anxiety ([3]; single 1 mg dose via patient controlled subcutaneous pump): reduction in anxiety
half life ([4]; in vivo): very short half life
oral bioavailability ([4]; oral): low oral bioavailability
solubility in acidic aqueous solutions ([5]; acidic aqueous solutions): slightly soluble
solubility in water ([5]; water): insoluble in water
symptoms of craving and anxiety [6]: decrease symptoms of craving and anxiety
panic induction ([7]; bolus infusion of 2 mg in 10 minutes, subjects with panic disorder): can act as a specific panicogen
effect on social anxiety or alcohol-dependent subjects ([7]; intravenous infusion): no effect
